Data set [1] concerns ob/ob mice. Kind of data set: Effect of F7 on liver weight, liver triglyceride, ALT and AST. Format: in vivo. The conditions noted are these: oral 50 mg/kg once daily for 3 weeks. Here is the method: Genetic spontaneous diabetes ob/ob mice were purchased from Jackson (USA), and maintained in a SPF facility (temperature: 22-24° C., humidity: 45-80%, illumination: 150-300 Lx, 12/12-hour light/dark cycle). When the mice were 7 weeks old, the ob/ob mice were grouped into the treatment group and the control group (9 animals per group) according to the fasting blood glucose. The two groups were administered orally with compound F7 (50 mg/kg) and a solution of 0.1% Tween 80 respectively, once daily for 3 weeks. After 3 weeks, the animals were sacrificed and the liver was excised and weighed.
The triglyceride level in the liver was measured.

The test system of data set [2] is ob/ob mice. Kind of data set: Fasting blood glucose in ob/ob mice, several heptacyclic compounds, 8 days. Format: in vivo. Here is the method:
Genetic spontaneous diabetes ob/ob mice were purchased from Jackson (USA), and maintained in a SPF facility (temperature: 22-24° C., humidity: 45-80%, illumination: 150-300 Lx, 12/12-hour light/dark cycle). Fasting blood glucose was determined for 3 days continuously when the mice were 7 weeks old. The mice were grouped into the treatment group and the control group (6 animals per group) according to the results determined. The treatment groups were administered orally with compound E9, G0 and F7 (psoromic acid) (100 mg/kg), and the control group was administered orally with a solution of 0.1% Tween 80 (blank control), once daily for 8 days. Fasting blood glucose in mice was determined at the end of experiment.

In data set [3] the test system is ob/ob mice. Kind of data set: Effect of F7 on glucose and lipid metabolic disorder, serum biochemical indicators. Format: in vivo. The conditions noted are these: oral 50 mg/kg once daily for 3 weeks. Here is the method: Genetic spontaneous diabetes ob/ob mice were purchased from Jackson (USA), and maintained in a SPF facility (temperature: 22-24° C., humidity: 45-80%, illumination: 150-300 Lx, 12/12-hour light/dark cycle). Fasting blood glucose was determined daily for 3 days continuously when the mice were 7 weeks old. The mice were grouped into the treatment group and the control group (8 animals per group) according to the results determined. The two groups were administered orally with compound F7 (50 mg/kg) and a solution of 0.1% Tween 80 respectively, once daily for 3 weeks. Another group of C57 mice was used as normal control. At the end of administration, blood samples were collected in each group, the serum was separated and serum biochemical indicators were detected.

A short description of data set [4]: Properties of psoromic acid (solubility, acidity, stability). Format: physicochemical. Here is the method:
As a preferred embodiment of the present invention, the compound of the present invention is psoromic acid, F7, a white needle crystal, which is odorless, faintly bitter, with melting point of 265-266° C.

In data set [5] the test system is Acetyl CoA Carboxylase (ACC). Kind of data set: Phosphorylation of ACC in HepG2 cell (Western blot). Format: cell-based, Human. The conditions noted are these: HepG2, 50 uM, 5 minutes, P<0.01 or P<0.05. In outline: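 HepG2 cells were serum-starved 6 h in MEM with 0.5% BSA, then treated with compound at 50 uM final (0.25% DMSO) for 5 min, with DMSO as control. Lysates (15 μg/lane) were immunoblotted for phospho-AMPK and phospho-ACC with ECL detection. Band grey levels, normalized to an internal standard, are expressed relative to the normal group set as 1.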

Data on one compound can be found in patent publication US8158623B2, “Heptacyclic compounds and the pharmaceutical uses thereof for preventing and treating diabetes and metabolic syndrome” (Shanghai Institute of Materia Medica Chinese Academy of …, priority 2007, dated 2012).

For `COc1cc(C(=O)O)c2c(c1C)OC(=O)c1c(C)cc(O)c(C=O)c1O2` [Compound F7, 4-Formyl-3-hydroxy-8-methoxy-1,9-dimethyl-11-oxo-11H-dibenzo[b,e][1,4]dioxepine-6-carboxylic acid], in the data set on ob/ob mice [1], the “Liver TG” value amounted to 106.9 ± 35.6 µmol/g, the “Liver Weight” value was found to be 2.67 ± 0.57 g and the “Weight of other organs or its ratio to body weight” value is given as “no effect”. Moreover, in the data set with ob/ob mice [1] (serum), the ALT is 161.5 ± 28.4 U/L and the AST is 197.3 ± 24.6 U/L. Moreover, the “Fasting Blood Glucose” value with ob/ob mice [2] (before administration) came to 11.94 ± 1.50 mM. In addition, the “Fasting blood glucose change in words” value with ob/ob mice [2] (dosed continuously for 8 days, P<0.05) is given as “reduced statistically significant”. In the data set on ob/ob mice [2] (oral 100 mg/kg once daily, after 8 days treatment), the “Fasting Blood Glucose” value worked out at 8.12 ± 1.04 mM. Besides, in the data set on ob/ob mice [3], the “CHOL (total cholesterol), serum” value was 6.0 ± 0.8 mmol/L; the “FRU (fructosamine), serum” value was determined as 225.0 ± 40.4 µmol/L; the “NFFA (unsaturated free fatty acid), serum” value was 1.15 ± 0.17 mmol/L; the “TG (triglycerides), serum” value is 72.1 ± 11.1 mg/dL. This compound yielded a UA (uric acid), serum in the data set on ob/ob mice [3] of 316 ± 109 µM. For the same compound, the “Solubility in organic solvents” value in data set [4] (DMSO, ethanol, acetone and ethyl acetate) is “soluble in organic solvents”. The “pH (acidic)” value in data set [4] (in water) was 3-4. Besides, in data set [4] (room temperature), the Stability result is recorded as “stable at room temperature”. Also, the Solubility in water result in data set [4] (water) is reported as “slightly soluble in water”. In addition, the “Level of phosphorylation for ACC protein versus DMSO control” value in data set [5] is listed as “improved significantly”.
